Source: patent US20220257491A1, “Prebiotic Oral Care Compositions and Methods” (Colgate-Palmolive Company, priority 2021, published 2022)
Marks after values point to notes of the source that are not given here.

Legend:
Type in all cases: cell-based
[1] = test system: S. oralis; test: Multi-species biofilm composition: absolute abundance of S. oralis; conditions: for Absolute abundance S. oralis: mean±SD n=3
Method: (§1) Biofilms are grown vertically on Calcium Deficient Hydroxyapatite (CAD-HA) disks (Hitemco Medical, Old Bethpage, USA) using the Amsterdam Active Adhesion model. Biofilms are allowed to establish during 24 h (37° C., 170 rpm) under micro-aerophilic conditions (6% O2, 7% CO2, 7% H2, 80% N2). After this 24 h, disks are rinsed 3 times a day for 3 minutes (RT, 250 rpm), for 3 consecutive days, by transferring the lid containing the disks to a new 24-well plate containing 2 mL/well of the appropriate substrate solution. As a negative control, PBS (pH 5.7) without substrate supplementation is used. After each rinsing step, disks are shortly dip-rinsed in a new 24-well plate containing fresh modified BHI medium (2 mL/well) to remove remaining substrate traces. Subsequently, the lid is transferred to another 24-well plate containing fresh modified BHI medium (2 mL/well), followed by incubation (micro-aerophilic, 37° C., 170 rpm) until the next rinsing step.
(§2) NADM, N-acetyl-D-glucosamine (“NADG”) and D-(+)-mannose are selected to determine their effects on multi-species biofilm composition. […] decrease in absolute numbers in at least four of the pathogenic bacterial species tested in the assay, compared to the control, the results of which are described in Table 1 below. Absolute abundances of bacterial species are shown as mean±SD (n=3) logarithmic values of the genome equivalents per millilitre (log(Geq/mL)).

[2] = test system: F. nucleatum; test: Multi-species biofilm composition: absolute abundance of F. nucleatum; conditions: mean±SD n=3
Method: as §1, §2

[3] = test system: P. gingivalis virulence genes; test: Multi-species biofilm virulence gene expression, SYBR RT-qPCR: P. gingivalis; conditions: for Fold Change in virulence gene expression: fimA / Fold Change in virulence gene expression: kgp / Fold Change in virulence gene expression: partC / Fold Change in virulence gene expression: rgpA: relative to control, 2^-ΔΔCt, geometric mean n=3
Method: as §1
(§3) The expression of 33 virulence genes from 4 periodontal pathogens is analysed to evaluate the relative virulence of the substrate-treated biofilms. For all three substrates, virulence gene expression is determined relatively to the control, and these values are also compared between substrates when this is relevant (Tables 5a-5d).

[4] = test system: V. parvula; test: Multi-species biofilm composition: absolute abundance of V. parvula; conditions: mean±SD n=3
Method: as §1
(§4) NADM, N-acetyl-D-glucosamine (“NADG”) and D-(+)-mannose are selected to determine their effects on multi-species biofilm composition. Repeated rinsing of the biofilms with the substrates at a concentration of 1M results in a significant decrease in absolute numbers in at least four of the pathogenic bacterial species tested in the assay, compared to the control, the results of which are described in Table 1 below. Absolute abundances of bacterial species are shown as mean±SD (n=3) logarithmic values of the genome equivalents per millilitre (log(Geq/mL)).

[5] = test system: F. nucleatum virulence genes; test: Multi-species biofilm virulence gene expression, SYBR RT-qPCR: F. nucleatum; conditions: for Fold Change in virulence gene expression: ABC transp. perm. / Fold Change in virulence gene expression: EF-G / Fold Change in virulence gene expression: but.-coA transf. / Fold Change in virulence gene expression: hemin receptor / Fold Change in virulence gene expression: hemolysin / Fold Change in virulence gene expression: ompA / Fold Change in virulence gene expression: transposase: relative to control (=1), 2^-ΔΔCt, geometric mean n=3
Method: as §1, §3

[6] = test system: S. gordonii; test: Multi-species biofilm composition: absolute abundance of S. gordonii; conditions: mean±SD n=3
Method: as §1, §4

[7] = test system: human oral keratinocytes (HOK-18A); test: IL-8 levels in supernatants of keratinocyte cultures exposed to substrate-treated biofilms; conditions: mean±SD n=3
Method: Cultures of immortalized human oral keratinocytes (HOK-18A) are grown. The relative inflammatory potential of the substrate-treated multi-species biofilms is evaluated by analyzing the expression of five inflammatory mediator genes in human oral keratinocytes (HOKs) exposed to the substrate-treated biofilms. […] The IL-8 levels in the cellular supernatant are determined as well. RNA is converted to cDNA and relative expression of inflammatory mediator genes is determined as described above with respect to the cellular housekeeping gene (3-actin.
Table 7: IL-8 levels detected in the supernatants of human oral keratinocytes (HOK-18A) cultures exposed to substrate-treated multi-species biofilms are shown as mean±SD (n=3) values (pg/mL). All substrates are dissolved in PBS at a concentration of 1 M (upper part) or 1% (w/v) (lower part). Values between 0 and 1 represent relative downregulation, values >1 represent relative upregulation. […] For such values, statistically significant differences between two experimental conditions are marked with ‘#1’ (vs. NADM), ‘#2’ (vs. NADG), ‘#3’ (vs. D-(+)-mannose) (P<0.05).

[8] = test system: S. salivarius; test: Multi-species biofilm composition: absolute abundance of S. salivarius; conditions: mean±SD n=3
Method: as §1, §4

[9] = test system: P. gingivalis; test: Multi-species biofilm composition: absolute abundance of P. gingivalis; conditions: mean±SD n=3
Method: as §1, §2

[10] = test system: S. mutans; test: Multi-species biofilm composition: absolute abundance of S. mutans; conditions: mean±SD n=3
Method: as §1, §4

[11] = test system: A. viscosus; test: Multi-species biofilm composition: absolute abundance of A. viscosus; conditions: mean±SD n=3
Method: as §1, §2

[12] = test system: A. naeslundii; test: Multi-species biofilm composition: absolute abundance of A. naeslundii; conditions: mean±SD n=3
Method: as §1, §4

[13] = test system: P. intermedia virulence genes; test: Multi-species biofilm virulence gene expression, SYBR RT-qPCR: P. intermedia; conditions: for Fold Change in virulence gene expression: DnaJ / Fold Change in virulence gene expression: DnaK / Fold Change in virulence gene expression: ECF / Fold Change in virulence gene expression: GroES / Fold Change in virulence gene expression: HtpG / Fold Change in virulence gene expression: KpsD / Fold Change in virulence gene expression: adpc / Fold Change in virulence gene expression: clpB / Fold Change in virulence gene expression: inpA / Fold Change in virulence gene expression: phg: relative to control (=1), 2^-ΔΔCt, geometric mean n=3
Method: as §1, §3

For CC(=O)N[C@H]1C(O)O[C@H](CO)[C@@H](O)[C@@H]1O (stereo partly drawn) [NADG, N-acetyl-D-glucosamine, reference compound], the “Absolute abundance S. oralis” value ([1]; substrate 1%(w/v) in PBS) was 7.11 ± 0.14 log(Geq/mL), the “Change in S. oralis numbers compared to the control” value ([1]; substrate 1 M) was “+1.0 log(Geq/mL)” and the “Absolute abundance S. oralis” value ([1]; substrate 1 M in PBS) was 7.97 ± 0.31*^, #1 log(Geq/mL). For the same compound, the “Absolute abundance Fn (F. nucleatum)” value ([2]; substrate 1%(w/v) in PBS) was 9.41 ± 0.19 log(Geq/mL), the “Absolute abundance Fn (F. nucleatum)” value ([2]; substrate 1 M in PBS) was 7.09 ± 0.30 log(Geq/mL) and the “P. gingivalis partC expression decrease” value ([3]; substrate 1%(w/v)) was 2.8 fold. For the same compound, the “Fold Change in virulence gene expression: fimA” value ([3]; substrate 1%) was 1.15 fold, the “Fold Change in virulence gene expression: kgp” value ([3]; substrate 1%) was 1.81 fold and the “Fold Change in virulence gene expression: partC” value ([3]; substrate 1%) was 0.36 fold. The “Fold Change in virulence gene expression: rgpA” value ([3]; substrate 1%) was 1.31 fold, the “Fold Change in virulence gene expression: fimA” value ([3]; substrate 1M) was 0.79 fold and the “Fold Change in virulence gene expression: kgp” value ([3]; substrate 1M) was 0.07 fold. For the same compound, the “Fold Change in virulence gene expression: partC” value ([3]; substrate 1M) was 0.19 fold, the “Fold Change in virulence gene expression: rgpA” value ([3]; substrate 1M) was 0.39 fold and the “Absolute abundance Vp (V. parvula)” value ([4]; substrate 1%(w/v) in PBS) was 9.77 ± 0.19 log(Geq/mL). The “Absolute abundance Vp (V. parvula)” value ([4]; substrate 1 M in PBS) was 10.57 ± 0.24 log(Geq/mL), the “Fold Change in virulence gene expression: ABC transp. perm.” value ([5]; substrate 1%) was 0.33 fold and the “Fold Change in virulence gene expression: EF-G” value ([5]; substrate 1%) was 0.10 fold. The “Fold Change in virulence gene expression: but.-coA transf.” value ([5]; substrate 1%) was 0.21 fold, the “Fold Change in virulence gene expression: hemin receptor” value ([5]; substrate 1%) was 0.19 fold and the “Fold Change in virulence gene expression: hemolysin” value ([5]; substrate 1%) was 0.79 fold. For the same compound, the “Fold Change in virulence gene expression: ompA” value ([5]; substrate 1%) was 0.74 fold, the “Fold Change in virulence gene expression: transposase” value ([5]; substrate 1%) was 0.98 fold and the “F. nucleatum hemolysin gene, upregulation” value ([5]; substrate 1 M) was 1.9 fold. For the same compound, the “Fold Change in virulence gene expression: ABC transp. perm.” value ([5]; substrate 1M) was 3.33 fold, the “Fold Change in virulence gene expression: EF-G” value ([5]; substrate 1M) was 1.45 fold and the “Fold Change in virulence gene expression: but.-coA transf.” value ([5]; substrate 1M) was 1.21 fold. The “Fold Change in virulence gene expression: hemin receptor” value ([5]; substrate 1M) was 3.26 fold, the “Fold Change in virulence gene expression: hemolysin” value ([5]; substrate 1M) was 1.90 fold and the “Fold Change in virulence gene expression: ompA” value ([5]; substrate 1M) was 1.33 fold. The “Fold Change in virulence gene expression: transposase” value ([5]; substrate 1M) was 1.27 fold, the “Absolute abundance S. gord. (S. gordonii)” value ([6]; substrate 1%(w/v) in PBS) was 8.33 ± 0.06 log(Geq/mL) and the “Absolute abundance S. gord. (S. gordonii)” value ([6]; substrate 1 M in PBS) was 9.38 ± 0.40 log(Geq/mL). The “IL-8 levels in supernatants of HOK-18A cultures” value ([7]; biofilm rinsed with substrate 1%(w/v)) was 54.75 ± 11.66 pg/mL, the “IL-8 levels in supernatants of HOK-18A cultures” value ([7]; biofilm rinsed with substrate 1M) was 0.22 ± 0.32 pg/mL and the “Absolute abundance S. sal. (S. salivarius)” value ([8]; substrate 1%(w/v) in PBS) was 2.65 ± 0.00 log(Geq/mL). For the same compound, the “Absolute abundance S. sal. (S. salivarius)” value ([8]; substrate 1 M in PBS) was 4.38 ± 1.23 log(Geq/mL), the “Absolute abundance Pg (P. gingivalis)” value ([9]; substrate 1%(w/v) in PBS) was 7.14 ± 0.28 log(Geq/mL) and the “Absolute abundance Pg (P. gingivalis)” value ([9]; substrate 1 M in PBS) was 4.00 ± 0.39*^, ^#3 log(Geq/mL). For the same compound, the “Absolute abundance S. mutans” value ([10]; substrate 1%(w/v) in PBS) was 7.83 ± 0.23 log(Geq/mL), the “Absolute abundance S. mutans” value ([10]; substrate 1 M in PBS) was 8.95 ± 0.38 log(Geq/mL) and the “Absolute abundance Av (A. viscosus)” value ([11]; substrate 1%(w/v) in PBS) was 7.83 ± 0.31 log(Geq/mL). The “Absolute abundance Av (A. viscosus)” value ([11]; substrate 1 M in PBS) was 6.92 ± 0.45 log(Geq/mL), the “Absolute abundance An (A. naeslundii)” value ([12]; substrate 1%(w/v) in PBS) was 7.71 ± 0.12 log(Geq/mL) and the “Absolute abundance An (A. naeslundii)” value ([12]; substrate 1 M in PBS) was 6.52 ± 0.20 log(Geq/mL). For the same compound, the “Relative P. intermedia virulence gene expression, downregulation” value ([13]; substrate 1%(w/v), D-(+)-mannose for 3 genes) was “unaffected”, the “Fold Change in virulence gene expression: DnaJ” value ([13]; substrate 1%) was 0.7 fold and the “Fold Change in virulence gene expression: DnaK” value ([13]; substrate 1%) was 0.77 fold. For the same compound, the “Fold Change in virulence gene expression: ECF” value ([13]; substrate 1%) was 0.48 fold, the “Fold Change in virulence gene expression: GroES” value ([13]; substrate 1%) was 0.75 fold and the “Fold Change in virulence gene expression: HtpG” value ([13]; substrate 1%) was 0.46 fold. For the same compound, the “Fold Change in virulence gene expression: KpsD” value ([13]; substrate 1%) was 0.78 fold, the “Fold Change in virulence gene expression: adpc” value ([13]; substrate 1%) was 0.67 fold and the “Fold Change in virulence gene expression: clpB” value ([13]; substrate 1%) was 1.06 fold. For the same compound, the “Fold Change in virulence gene expression: inpA” value ([13]; substrate 1%) was 0.53 fold, the “Fold Change in virulence gene expression: phg” value ([13]; substrate 1%) was 0.69 fold and the “P. intermedia virulence gene expression, increases” value ([13]; substrate 1 M, range over genes) was 2- to 20.3 fold. For the same compound, the “Fold Change in virulence gene expression: DnaJ” value ([13]; substrate 1M) was 0.64 fold, the “Fold Change in virulence gene expression: DnaK” value ([13]; substrate 1M) was 2.34 fold and the “Fold Change in virulence gene expression: ECF” value ([13]; substrate 1M) was 20.32 fold. The “Fold Change in virulence gene expression: GroES” value ([13]; substrate 1M) was 1.86 fold, the “Fold Change in virulence gene expression: HtpG” value ([13]; substrate 1M) was 3.40 fold and the “Fold Change in virulence gene expression: KpsD” value ([13]; substrate 1M) was 1.72 fold. For the same compound, the “Fold Change in virulence gene expression: adpc” value ([13]; substrate 1M) was 2.65 fold, the “Fold Change in virulence gene expression: clpB” value ([13]; substrate 1M) was 2.03 fold and the “Fold Change in virulence gene expression: inpA” value ([13]; substrate 1M) was 4.52 fold. The “Fold Change in virulence gene expression: phg” value ([13]; substrate 1M) was 0.57 fold.
